Reference: patent publication US20210300940A1 (Merck Patent GmbH, priority 2018, published 2021)
Structures can show the parent of a compound that is named as a salt.

How the values were obtained:
TLR7 = target: T1, TLR7 (Homo sapiens, UniProt Q9NYK1); test: HEK/293 TLR7 Cell Assay; format: cell-based; conditions: TLR7/NFKb HEK cells, R848 agonist 10 uM final concentration, Steady-Glo readout; read-out: TLR7 potency
T1 construct: expressed in transfected cells; host or cells: HEK/293 cells carrying TLR7 and an NF-kB luciferase reporter
T1 sequence (Q9NYK1 27-1049): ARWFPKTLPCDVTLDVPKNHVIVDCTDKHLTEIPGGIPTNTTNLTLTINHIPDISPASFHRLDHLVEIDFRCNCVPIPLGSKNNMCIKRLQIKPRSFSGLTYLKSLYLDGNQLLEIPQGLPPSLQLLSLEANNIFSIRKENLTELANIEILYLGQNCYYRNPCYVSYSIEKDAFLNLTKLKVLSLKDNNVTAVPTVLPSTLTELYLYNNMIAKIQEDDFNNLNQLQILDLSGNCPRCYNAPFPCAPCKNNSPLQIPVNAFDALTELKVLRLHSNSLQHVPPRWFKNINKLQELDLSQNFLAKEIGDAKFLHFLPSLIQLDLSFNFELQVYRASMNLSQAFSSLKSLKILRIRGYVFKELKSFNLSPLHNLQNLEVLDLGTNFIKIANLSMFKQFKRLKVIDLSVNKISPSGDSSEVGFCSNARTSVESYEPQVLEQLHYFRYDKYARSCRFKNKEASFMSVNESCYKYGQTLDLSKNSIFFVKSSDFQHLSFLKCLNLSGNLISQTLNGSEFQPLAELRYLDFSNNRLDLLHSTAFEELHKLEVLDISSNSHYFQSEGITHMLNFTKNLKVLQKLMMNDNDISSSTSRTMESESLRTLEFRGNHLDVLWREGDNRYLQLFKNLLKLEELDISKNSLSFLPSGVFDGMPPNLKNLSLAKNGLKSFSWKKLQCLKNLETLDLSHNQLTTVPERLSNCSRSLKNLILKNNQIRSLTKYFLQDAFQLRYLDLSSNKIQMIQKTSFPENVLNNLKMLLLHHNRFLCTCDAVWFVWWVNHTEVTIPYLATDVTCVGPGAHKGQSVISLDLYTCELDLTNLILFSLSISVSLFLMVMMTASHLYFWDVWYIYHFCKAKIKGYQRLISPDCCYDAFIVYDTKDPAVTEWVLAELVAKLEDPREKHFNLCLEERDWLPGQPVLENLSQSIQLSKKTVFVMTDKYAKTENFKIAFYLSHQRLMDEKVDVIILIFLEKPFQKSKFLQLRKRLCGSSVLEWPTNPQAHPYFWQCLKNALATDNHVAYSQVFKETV
Method in brief: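 Compounds added to HEK cells expressing TLR7 with an NFκB reporter 30 min ahead of 10 uM R848 challenge; luciferase signal (Steady-Glo) measured after 5 h, cells having been seeded 24 h earlier at 5000 per well.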

TLR8 = target: T2, TLR8 (Homo sapiens, UniProt Q9NR97); test: HEK/293 TLR8 Cell Assay; format: cell-based; conditions: HEK cells, R848 agonist 30 uM final concentration, Steady-Glo readout; read-out: TLR8 potency
T2 construct: expressed in transfected cells; host or cells: HEK/293 reporter cells (NF-kB luciferase)
T2 sequence (Q9NR97 27-1041): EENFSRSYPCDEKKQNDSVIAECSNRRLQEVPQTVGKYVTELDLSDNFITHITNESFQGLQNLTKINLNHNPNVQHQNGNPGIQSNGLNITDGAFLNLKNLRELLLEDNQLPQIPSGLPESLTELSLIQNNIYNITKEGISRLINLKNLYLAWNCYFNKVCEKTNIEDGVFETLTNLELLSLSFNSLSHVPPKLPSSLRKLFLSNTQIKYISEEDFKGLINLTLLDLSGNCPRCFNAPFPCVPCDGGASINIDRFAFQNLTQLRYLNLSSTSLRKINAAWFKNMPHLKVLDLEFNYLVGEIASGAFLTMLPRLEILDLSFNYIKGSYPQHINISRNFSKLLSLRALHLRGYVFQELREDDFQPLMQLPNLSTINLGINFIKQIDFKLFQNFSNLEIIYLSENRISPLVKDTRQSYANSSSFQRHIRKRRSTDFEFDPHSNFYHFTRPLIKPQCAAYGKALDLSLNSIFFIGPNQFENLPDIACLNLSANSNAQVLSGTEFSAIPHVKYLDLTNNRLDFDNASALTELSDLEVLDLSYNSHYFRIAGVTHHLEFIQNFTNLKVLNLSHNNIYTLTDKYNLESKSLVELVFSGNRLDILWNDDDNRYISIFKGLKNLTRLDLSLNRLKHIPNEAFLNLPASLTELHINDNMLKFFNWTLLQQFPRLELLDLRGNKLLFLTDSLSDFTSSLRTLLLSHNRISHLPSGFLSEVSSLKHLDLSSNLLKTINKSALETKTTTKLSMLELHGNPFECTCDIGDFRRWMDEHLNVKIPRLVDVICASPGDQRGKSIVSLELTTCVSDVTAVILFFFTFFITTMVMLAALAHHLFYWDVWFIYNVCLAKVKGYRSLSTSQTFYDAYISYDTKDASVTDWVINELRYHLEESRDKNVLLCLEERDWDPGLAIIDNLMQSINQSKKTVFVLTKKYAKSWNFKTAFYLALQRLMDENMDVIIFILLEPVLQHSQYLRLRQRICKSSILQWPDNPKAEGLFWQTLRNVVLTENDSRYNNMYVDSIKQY

| IC50 (TLR7) [nM] | IC50 (TLR8) [nM] | SMILES |
| --- | --- | --- |
| < 75 | < 75 | CN1CCC(O)(CC(=O)N[C@@H]2C[C@H](C(F)(F)F)CN(c3ccc(C(F)(F)F)c4ncccc34)C2)CC1 [Example 67, 2-(4-hydroxy-1-methylpiperidin-4-yl)-N-[(3R,5S)-5-(trifluoromethyl)-1-[8-(trifluoromethyl)quinolin-5-yl]piperidin-3-yl]acetamide] |
| < 75 | < 75 | Cc1c(F)cc(N2C[C@H](NC(=O)CC3(O)CCN(C)CC3)C[C@H](C(F)(F)F)C2)c2cccnc12 [Example 68, hydrochloride] |
| < 75 | < 75 | Cc1c(F)cc(N2C[C@@H](C)C[C@@H](NC(=O)CC3(O)CCN(C)CC3)C2)c2cccnc12 [Example 69, N-[(3R,5S)-1-(7-fluoro-8-methylquinolin-5-yl)-5-methylpiperidin-3-yl]-2-(4-hydroxy-1-methylpiperidin-4-yl)acetamide] |
| 75 to 150 | 75 to 150 | Cc1ncc(N2C[C@H](NC(=O)CN3CCN(C)CC3)C[C@H](C(F)(F)F)C2)c2cccnc12 [Example 70, N-[(3R,5S)-1-(8-methyl-1,7-naphthyridin-5-yl)-5-(trifluoromethyl)piperidin-3-yl]-2-(4-methylpiperazin-1-yl)acetamide] |
| < 75 | 75 to 150 | CN1CCC(F)(CC(=O)N[C@@H]2C[C@H](C(F)(F)F)CN(c3ccc(C#N)c4ncncc34)C2)CC1 [Example 71, N-[(3R,5S)-1-(8-cyanoquinazolin-5-yl)-5-(trifluoromethyl)piperidin-3-yl]-2-(4-fluoro-1-methylpiperidin-4-yl)acetamide] |
| 75 to 150 | > 150 | CN1CCC(O)(CC(=O)N[C@@H]2C[C@H](C(F)(F)F)CN(c3ccc(C#N)c4ncccc34)C2)CC1 [Example 73, N-[(3R,5S)-1-(8-cyanoquinolin-5-yl)-5-(trifluoromethyl)piperidin-3-yl]-2-(4-hydroxy-1-methylpiperidin-4-yl)acetamide] |
| 75 to 150 | < 75 | CN1CCC(O)(CC(=O)N[C@@H]2C[C@H](C(F)(F)F)CN(c3ccc(C#N)c4nccnc34)C2)CC1 [Example 76, N-[(3R,5S)-1-(8-cyanoquinoxalin-5-yl)-5-(trifluoromethyl)piperidin-3-yl]-2-(4-hydroxy-1-methylpiperidin-4-yl)acetamide] |
| < 75 | < 75 | CN1CCC(F)(CC(=O)N[C@@H]2C[C@H](C(F)(F)F)CN(c3ccc(C#N)c4nccnc34)C2)CC1 [Example 77] |
| < 75 | < 75 | C[C@H]1C[C@@H](NC(=O)CCN(C)C)CN(c2ccc(C(F)(F)F)c3nccnc23)C1 [Example 78] |
| < 75 | < 75 | C[C@H]1C[C@@H](NC(=O)CC2(O)CCN(C)CC2)CN(c2ccc(C(F)(F)F)c3nccnc23)C1 [Example 80, 2-(4-hydroxy-1-methylpiperidin-4-yl)-N-[(3R,5S)-5-methyl-1-[8-(trifluoromethyl)quinoxalin-5-yl]piperidin-3-yl]acetamide hydrochloride] |
| 75 to 150 | < 75 | CN1CCN(CC(=O)N[C@@H]2C[C@H](C(F)(F)F)CN(c3ccc(C#N)c4ncccc34)C2)CC1 [Example 82, N-((3R,5S)-1-(8-cyanoquinolin-5-yl)-5-(trifluoromethyl)piperidin-3-yl)-2-(4-methylpiperazin-1-yl)acetamide] |
| < 75 | < 75 | C[C@H]1C[C@@H](NC(=O)CC2(F)CCN(C)CC2)CN(c2ccc(C(F)(F)F)c3ncccc23)C1 [Example 83, 2-(4-fluoro-1-methylpiperidin-4-yl)-N-[(3R,5S)-5-methyl-1-[8-(trifluoromethyl)quinolin-5-yl]piperidin-3-yl]acetamide] |
| < 75 | < 75 | C[C@H]1C[C@@H](NC(=O)CC2(O)CCN(C)CC2)CN(c2ccc(C(F)(F)F)c3ncccc23)C1 [Example 84, 2-(4-hydroxy-1-methylpiperidin-4-yl)-N-[(3R,5S)-5-methyl-1-[8-(trifluoromethyl)quinolin-5-yl]piperidin-3-yl]acetamide] |
| < 75 | < 75 | Cc1ccc(N2C[C@@H](C)C[C@@H](NC(=O)CC3(O)CCN(C)CC3)C2)c2cccnc12 [Example 85, 2-(4-hydroxy-1-methylpiperidin-4-yl)-N-[(3R,5S)-5-methyl-1-(8-methylquinolin-5-yl)piperidin-3-yl]acetamide hydrochloride] |
| 75 to 150 | < 75 | Cc1ccc(N2C[C@@H](C)C[C@@H](NC(=O)CN3CCN(C)CC3)C2)c2cccnc12 [Example 86, N-[(3R,5S)-5-methyl-1-(8-methylquinolin-5-yl)piperidin-3-yl]-2-(4-methylpiperazin-1-yl)acetamide] |
| < 75 | < 75 | Cc1ccc(N2C[C@H](NC(=O)CC3(O)CCN(C)CC3)C[C@H](C(F)(F)F)C2)c2cccnc12 [Example 87, 2-(4-hydroxy-1-methylpiperidin-4-yl)-N-[(3R,5S)-1-(8-methylquinolin-5-yl)-5-(trifluoromethyl)piperidin-3-yl]acetamide] |
| < 75 | > 150 | C[C@H]1C[C@@H](NC(=O)CN2CCN(C)CC2)CN(c2ccc(C#N)c3ncncc23)C1 [Example 89, N-[(3R,5S)-1-(8-cyanoquinazolin-5-yl)-5-methylpiperidin-3-yl]-2-(4-methylpiperazin-1-yl)acetamide] |

| SMILES | IC50 (TLR7) [nM] | IC50 (TLR8) [nM] |
| --- | --- | --- |
| C[C@H]1C[C@@H](NC(=O)CC2(O)CCN(C)CC2)CN(c2ccc(C#N)c3nccnc23)C1 [Example 72, N-[(3R,5S)-1-(8-cyanoquinoxalin-5-yl)-5-methylpiperidin-3-yl]-2-(4-hydroxy-1-methylpiperidin-4-yl)acetamide hydrochloride] | < 75 | < 75 |
| Cc1cc(CC(=O)N[C@@H]2C[C@H](C)CN(c3ccc(C#N)c4nccnc34)C2)on1 [Example 74, N-[(3R,5S)-1-(8-cyanoquinoxalin-5-yl)-5-methylpiperidin-3-yl]-2-(3-methyl-1,2-oxazol-5-yl)acetamide] | < 75 | < 75 |
| CN(C)CCC(=O)N[C@@H]1C[C@H](C(F)(F)F)CN(c2ccc(C#N)c3nccnc23)C1 [Example 75] | < 75 | < 75 |
| C[C@H]1C[C@@H](NC(=O)CCN(C)C)CN(c2ccc(C#N)c3nccnc23)C1 [Example 79] | < 75 | < 75 |
| C[C@H]1C[C@@H](NC(=O)CC2(F)CCN(C)CC2)CN(c2ccc(C#N)c3ncncc23)C1 [Example 88, N-[(3R,5S)-1-(8-cyanoquinazolin-5-yl)-5-methylpiperidin-3-yl]-2-(4-fluoro-1-methylpiperidin-4-yl)acetamide] | < 75 | < 75 |
